According to patent publication US6525001B1, “Substituted pyrimidine and pyridine herbicides” (Mid-American Commercialization Corporation, priority 1997, dated 2003):

Key:
Assay type in all cases: in vivo
[1] = tested on: smallflower flatsedge (Cyperus difformis); assay: Test B flood test
Procedure, shortened: (§1)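 Plants were grown to the 2-leaf stage before treatment with test chemical, then held in a greenhouse for twelve to sixteen days. Injury was visually rated against untreated controls on a 0–10 scale, where 0 is no effect and 10 is complete control.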

[2] = tested on: bamyardgrass (Echinochloa crus-galli); assay: Test B flood test
Procedure, shortened: as §1

[3] = tested on: duck salad (Heteranthera limosa); assay: Test B flood test
Procedure, shortened: as §1

[4] = tested on: rice (Oryza sativa); assay: Test B flood test
Procedure, shortened: as §1

[5] = tested on: rape (Brassica napus); assay: Test B pre-/postemergence; parameters: key: 0 is no effect; 10 is complete control
Procedure, shortened: (§2)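 Seeds were planted and sprayed preemergence, while plants at 2 to 18 cm (1- to 4-leaf stage) were sprayed postemergence at the same time, with test chemical in a non-phytotoxic solvent mixture containing surfactant. After twelve to sixteen days in a greenhouse, injury was rated visually against untreated controls on a 0–10 scale.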

[6] = tested on: crabgrass (Digitaria sanguinalis); assay: Test B pre-/postemergence; parameters: key: 0 is no effect; 10 is complete control
Procedure, shortened: as §2

[7] = tested on: sugar beet (Beta vulgaris); assay: Test B pre-/postemergence; parameters: key: 0 is no effect; 10 is complete control
Procedure, shortened: as §2

[8] = tested on: purple nutsedge (Cyperus rotundus); assay: Test B pre-/postemergence; parameters: key: 0 is no effect; 10 is complete control
Procedure, shortened: as §2

[9] = tested on: bedstraw (Galium aparine); assay: Test B pre-/postemergence; parameters: key: 0 is no effect; 10 is complete control
Procedure, shortened: as §2

[10] = tested on: wheat (Triticum aestivum); assay: Test B pre-/postemergence; parameters: key: 0 is no effect; 10 is complete control
Procedure, shortened: as §2

[11] = tested on: corn (Zea mays); assay: Test B pre-/postemergence; parameters: key: 0 is no effect; 10 is complete control
Procedure, shortened: as §2

[12] = tested on: giant foxtail (Setaria faberii); assay: Test B pre-/postemergence; parameters: key: 0 is no effect; 10 is complete control
Procedure, shortened: as §2

[13] = tested on: wild oat (Avena fatua); assay: Test B pre-/postemergence; parameters: key: 0 is no effect; 10 is complete control
Procedure, shortened: as §2

[14] = tested on: velvetleaf (Abutilon theophrasti); assay: Test B pre-/postemergence; parameters: key: 0 is no effect; 10 is complete control
Procedure, shortened: as §2

[15] = tested on: soybean (Glycine max); assay: Test B pre-/postemergence; parameters: key: 0 is no effect; 10 is complete control
Procedure, shortened: as §2

[16] = Rate 62 g/ha, Postemergence (flood test)
[17] = Rate 125 g/ha, Postemergence, flood test
[18] = Rate 250 g/ha, Postemergence (flood test species)

SMILES: Cc1cnc(-c2ccc(C(F)(F)F)cc2)nc1C(Cl)c1cccc(C(F)(F)F)c1 (racemic) [Compound 21]
- Plant response rating, S. Flatsedge [1, 16]: 6
- Plant response rating, S. Flatsedge [1, 17]: 8
- Plant response rating, S. Flatsedge [1, 18]: 9
- Plant response rating, Barnyardgrass [2, 16]: 3
- Plant response rating, Barnyardgrass [2, 17]: 4
- Plant response rating, Barnyardgrass [2, 18]: 4
- Plant response rating, Ducksalad [3, 16]: 3
- Plant response rating, Ducksalad [3, 17]: 4
- Plant response rating, Ducksalad [3, 18]: 5
- Plant response rating, Rice [4, 16]: 3
- Plant response rating, Rice [4, 17]: 4
- Plant response rating, Rice [4, 18]: 5
- Plant response rating, Rape ([5]; Rate 62 g/ha, Postemergence): 9
- Rape plant response rating ([5]; Rate 62 g/ha, Preemergence): 2
- Plant response rating, Rape ([5]; Rate 125 g/ha, Postemergence): 10
- Rape plant response rating ([5]; Rate 125 g/ha, Preemergence): 3
- Plant response rating, Rape ([5]; Rate 250 g/ha, Postemergence): 10
- Plant response rating, Rape ([5]; Rate 250 g/ha, Preemergence): 5
- Plant response rating, Crabgrass ([6]; Rate 62 g/ha, Postemergence): 3
- Crabgrass plant response rating ([6]; Rate 62 g/ha, Preemergence): 3
- Plant response rating, Crabgrass ([6]; Rate 125 g/ha, Postemergence): 6
- Crabgrass plant response rating ([6]; Rate 125 g/ha, Preemergence): 6
- Plant response rating, Crabgrass ([6]; Rate 250 g/ha, Postemergence): 8
- Plant response rating, Crabgrass ([6]; Rate 250 g/ha, Preemergence): 10
- Plant response rating, Sugarbeets ([7]; Rate 62 g/ha, Postemergence): 9
- Sugarbeets plant response rating ([7]; Rate 62 g/ha, Preemergence): 7
- Plant response rating, Sugarbeets ([7]; Rate 125 g/ha, Postemergence): 9
- Sugarbeets plant response rating ([7]; Rate 125 g/ha, Preemergence): 8
- Plant response rating, Sugarbeets ([7]; Rate 250 g/ha, Postemergence): 10
- Plant response rating, Sugarbeets ([7]; Rate 250 g/ha, Preemergence): 10
- Plant response rating, Nutsedge ([8]; Rate 62 g/ha, Postemergence): 2
- Nutsedge plant response rating ([8]; Rate 62 g/ha, Preemergence): 0
- Plant response rating, Nutsedge ([8]; Rate 125 g/ha, Postemergence): 2
- Nutsedge plant response rating ([8]; Rate 125 g/ha, Preemergence): 0
- Plant response rating, Nutsedge ([8]; Rate 250 g/ha, Postemergence): 3
- Plant response rating, Nutsedge ([8]; Rate 250 g/ha, Preemergence): 0
- Plant response rating, Bedstraw ([9]; Rate 62 g/ha, Postemergence): 5
- Bedstraw plant response rating ([9]; Rate 62 g/ha, Preemergence): 0
- Plant response rating, Bedstraw ([9]; Rate 125 g/ha, Postemergence): 9
- Bedstraw plant response rating ([9]; Rate 125 g/ha, Preemergence): 1
- Plant response rating, Bedstraw ([9]; Rate 250 g/ha, Postemergence): 9
- Plant response rating, Bedstraw ([9]; Rate 250 g/ha, Preemergence): 8
- Plant response rating, Wheat ([10]; Rate 62 g/ha, Postemergence): 4
- Wheat plant response rating ([10]; Rate 62 g/ha, Preemergence): 0
- Plant response rating, Wheat ([10]; Rate 125 g/ha, Postemergence): 4
- Wheat plant response rating ([10]; Rate 125 g/ha, Preemergence): 0
- Plant response rating, Wheat ([10]; Rate 250 g/ha, Postemergence): 5
- Plant response rating, Wheat ([10]; Rate 250 g/ha, Preemergence): 2
- Plant response rating, Corn ([11]; Rate 62 g/ha, Postemergence): 3
- Corn plant response rating ([11]; Rate 62 g/ha, Preemergence): 0
- Plant response rating, Corn ([11]; Rate 125 g/ha, Postemergence): 3
- Corn plant response rating ([11]; Rate 125 g/ha, Preemergence): 0
- Plant response rating, Corn ([11]; Rate 250 g/ha, Postemergence): 4
- Plant response rating, Corn ([11]; Rate 250 g/ha, Preemergence): 1
- Plant response rating, Giant foxtail ([12]; Rate 62 g/ha, Postemergence): 1
- Giant foxtail plant response rating ([12]; Rate 62 g/ha, Preemergence): 5
- Plant response rating, Giant foxtail ([12]; Rate 125 g/ha, Postemergence): 8
- Giant foxtail plant response rating ([12]; Rate 125 g/ha, Preemergence): 8
- Plant response rating, Giant foxtail ([12]; Rate 250 g/ha, Postemergence): 9
- Plant response rating, Giant foxtail ([12]; Rate 250 g/ha, Preemergence): 9
- Plant response rating, Wild oats ([13]; Rate 62 g/ha, Postemergence): 4
- Wild oats plant response rating ([13]; Rate 62 g/ha, Preemergence): 4
- Plant response rating, Wild oats ([13]; Rate 125 g/ha, Postemergence): 5
- Wild oats plant response rating ([13]; Rate 125 g/ha, Preemergence): 5
- Plant response rating, Wild oats ([13]; Rate 250 g/ha, Postemergence): 6
- Plant response rating, Wild oats ([13]; Rate 250 g/ha, Preemergence): 8
- Plant response rating, Velvetleaf ([14]; Rate 62 g/ha, Postemergence): 7
- Velvetleaf plant response rating ([14]; Rate 62 g/ha, Preemergence): 4
- Plant response rating, Velvetleaf ([14]; Rate 125 g/ha, Postemergence): 8
- Velvetleaf plant response rating ([14]; Rate 125 g/ha, Preemergence): 8
- Plant response rating, Velvetleaf ([14]; Rate 250 g/ha, Postemergence): 9
- Plant response rating, Velvetleaf ([14]; Rate 250 g/ha, Preemergence): 10
- Plant response rating, Soybean ([15]; Rate 62 g/ha, Postemergence): 6
- Soybean plant response rating ([15]; Rate 62 g/ha, Preemergence): 0
- Plant response rating, Soybean ([15]; Rate 125 g/ha, Postemergence): 6
- Soybean plant response rating ([15]; Rate 125 g/ha, Preemergence): 0
- Plant response rating, Soybean ([15]; Rate 250 g/ha, Postemergence): 6
- Plant response rating, Soybean ([15]; Rate 250 g/ha, Preemergence): 0
